The results in this text go back to US10851112B2, “Anti-HCMV virus compound” (MEDSHINE DISCOVERY INC., priority 2016, dated 2020).

The nature of series [1]: Plasma protein binding rate test, equilibrium dialysis, SD rat plasma. The format is in vitro ADME. The settings on record: rat plasma (R), equilibrium dialysis 37° C. 4 hours, read-out: plasma protein binding PPB bound (%) (converted). On the procedure: (§1) Plasma Protein Binding Rate Test of the Compound
(§2) The protein binding rate of the test compound in CD-1 mice, SD rats, and human plasma was evaluated by equilibrium dialysis. The test compound was diluted into the plasma of the above three species respectively to prepare a sample with a final concentration of 2 μM. The sample was added to a 96-well equilibrium dialysis device, and dialyzed using a phosphate buffer solution at 37° C. for 4 hours. Warfarin was used as a control compound in the experiment. The concentration of the test compound and warfarin in the plasma and the buffer was determined by LC-MS/MS.

Series [2] is described as follows: Plasma protein binding rate test, equilibrium dialysis, human plasma. The format is in vitro ADME. The settings on record: equilibrium dialysis 37° C. 4 hours, read-out: plasma protein binding PPB bound (%) (converted). On the procedure: as §1, §2
Series [3] relates to US3-6-EGFP-HCMV-AD169 viruses. Nature of the series: Fluorescence decay assay against human cytomegalovirus. The format is cell-based, human cytomegalovirus (HCMV). The settings on record: Human betaherpesvirus 5, AD169, MRC5, 240 h. On the procedure:
Fluorescence Decay Assay Against Human Cytomegalovirus
The antiviral activity of the compound against human cytomegalovirus (HCMV) was evaluated by determining the half maximal effective concentration (EC50) of the compound. The HCMV used in this assay was inserted with enhanced green fluorescent protein (EGFP) by gene recombination, so the viral replication in cells could be reflected by the expression level of GFP. The inhibitory activity of the compound on HCMV GFP expression was evaluated by determining the fluorescence intensity in the wells of different concentrations of the compound using a high content cell analysis platform Acumen eX3.
Fluorescence Decay Assay Against HCMV
MRC5 cells were inoculated into a black 96-well cell culture plate at a density of 20,000 cells per well. The plate was incubated overnight in a 37° C., 5% CO2 incubator. US3-6-EGFP-HCMV-AD169 viruses were added to the cell culture well at a certain MOI (0.003-0.1) and the plate was incubated for 3 hours in a 37° C., 5% CO2 incubator. After adsorption of viruses, the medium containing viruses was aspirated and 200 μL of cell culture medium containing different concentrations of the compound (4-fold dilution, 6 test concentrations) was added. The final concentration of DMSO in the medium was 1%. Virus control wells (with DMSO added, but no compound was added) and inhibition control wells (with a high concentration of control compound added) were set. The cell plate was incubated for 10 days in a 37° C., 5% CO2 incubator and the liquid was renewed on the 4th day and 7th day. After 10 days of culture, the fluorescence intensity was determined using a high content cell analysis platform Acumen eX3 (TTP LabTech). The original data was used for calculating the antiviral activity of the compound.
The inhibition % was imported into GraphPad Prism software for data processing to give a corresponding dose-response curve for the compound and the EC50 of the test compound was obtained.

Series [4] is described as follows: Plasma protein binding rate test, equilibrium dialysis, CD-1 mouse plasma. The format is in vitro ADME. The settings on record: mouse plasma (M), equilibrium dialysis 37° C. 4 hours, read-out: plasma protein binding PPB bound (%) (converted). On the procedure: as §1, §2
In general terms: In equilibrium dialysis only unbound substance equilibrates across the membrane.

Each structure is given as a SMILES string.

By EC50 is commonly meant the concentration giving half of the maximal effect. For `COc1cccc(N2CCN(C3=Nc4ccsc4[C@H](CC(=O)O)N3c3cc(C(F)(F)F)ccc3OC)CC2)c1` (single isomer, unassigned) [WX-088], the results for the fraction unbound at 4 h, 2 μM in series [1], in series [2] and in series [4] were 0.028, 0.024 and 0.022, respectively. Also, in series [3], the EC50 was 2 nM.

Consider `COc1cc(N2CCN(C3=Nc4ccsc4[C@H](CC(=O)O)N3c3cc(C(F)(F)F)ccc3OC)CC2)ccn1` (single isomer, unassigned) [WX-109], for which the fraction unbound at 4 h, 2 μM was 0.108 in series [1], 0.097 in series [2] and 0.055 in series [4]. The concentration giving a half-maximal response (EC50) in series [3] amounted to 4 nM.

With `COc1cccc(N2CCN(C3=Nc4c(csc4F)[C@H](CC(=O)O)N3c3cc(C(F)(F)F)ccc3OC)C[C@H]2C)c1` (single isomer, unassigned) [WX-132], the fraction unbound at 4 h, 2 μM in series [1] was 0.017; in series [2], 0.022; in series [4], 0.011. For the same compound, in series [3], the EC50 was found to be 0.15 nM.

`COc1cncc(N2CCN(C3=Nc4ccsc4[C@H](CC(=O)O)N3c3cc(C(F)(F)F)ccc3OC)C[C@H]2C)c1` (single isomer, unassigned) [WX-137]: in series [3], the EC50 came out at 31 nM.

As for `COc1cncc(N2CCN(C3=Nc4ccsc4[C@@H](CC(=O)O)N3c3cc(C(F)(F)F)ccc3OC)C[C@H]2C)c1` (single isomer, unassigned) [WX-138], the EC50 in series [3] was above 1000 nM.

For the compound `COc1ccnc(N2CCN(C3=Nc4ccsc4[C@H](CC(=O)O)N3c3cc(C(F)(F)F)ccc3OC)C[C@H]2C)c1` (single isomer, unassigned) [WX-139], the fraction unbound at 4 h, 2 μM in series [1] is 0.041; in series [2], 0.06; in series [4], 0.014. In addition, the EC50 in series [3] came out at 3 nM.

For the compound `COc1ccnc(N2CCN(C3=Nc4ccsc4[C@@H](CC(=O)O)N3c3cc(C(F)(F)F)ccc3OC)C[C@H]2C)c1` (single isomer, unassigned) [WX-140], the EC50 in series [3] was found to be 144 nM.

As for `COc1cc(N2CCN(C3=Nc4ccsc4[C@@H](CC(=O)O)N3c3cc(C(F)(F)F)ccc3OC)C[C@H]2C)ccn1` (single isomer, unassigned) [WX-142], the EC50 in series [3] was 56 nM.

As for `COc1cc(N2CCN(C3=Nc4ccsc4[C@H](CC(=O)O)N3c3cc(C(F)(F)F)ccc3OC)C[C@H]2C)ncn1` (single isomer, unassigned) [WX-143], the results for the fraction unbound at 4 h, 2 μM in series [1], in series [2] and in series [4] were 0.066, 0.069 and 0.015, respectively. The EC50 in series [3] was found to be 0.89 nM.

For the compound `COc1cc(N2CCN(C3=Nc4ccsc4[C@@H](CC(=O)O)N3c3cc(C(F)(F)F)ccc3OC)C[C@H]2C)ncn1` (single isomer, unassigned) [WX-144], in series [3], the EC50 worked out at 261 nM.

As for `COc1ccnc(N2CCN(C3=Nc4c(csc4F)[C@H](CC(=O)O)N3c3cc(C(F)(F)F)ccc3OC)C[C@H]2C)c1` (single isomer, unassigned) [WX-145], the fraction unbound at 4 h, 2 μM is 0.014 in series [1], 0.023 in series [2] and 0.001 in series [4]. Moreover, the EC50 in series [3] was found to be 2 nM.

As for `COc1ccnc(N2CCN(C3=Nc4c(csc4F)[C@@H](CC(=O)O)N3c3cc(C(F)(F)F)ccc3OC)C[C@H]2C)c1` (single isomer, unassigned) [WX-146], the EC50 in series [3] was 352 nM.

With `COc1cc(N2CCN(C3=Nc4c(csc4F)[C@H](CC(=O)O)N3c3cc(C(F)(F)F)ccc3OC)C[C@H]2C)ccn1` (single isomer, unassigned) [WX-147], the fraction unbound at 4 h, 2 μM in series [1] was 0.014; in series [2], 0.018; in series [4] it was 0.002. Also, in series [3], the EC50 was found to be 0.17 nM.

With `COc1cc(N2CCN(C3=Nc4c(csc4F)[C@@H](CC(=O)O)N3c3cc(C(F)(F)F)ccc3OC)C[C@H]2C)ccn1` (single isomer, unassigned) [WX-148], the EC50 in series [3] was found to be 12 nM.

On to `COc1cc(N2CCN(C3=Nc4c(csc4F)[C@@H](CC(=O)O)N3c3cc(C(F)(F)F)ccc3OC)C[C@H]2C)ncn1` (single isomer, unassigned) [WX-150], for which the EC50 in series [3] was 20 nM.

Consider `COc1cc(N2[C@H](C)CN(C3=Nc4ccsc4[C@@H](CC(=O)O)N3c3cc(C(F)(F)F)ccc3OC)C[C@@H]2C)ccn1` (single isomer, unassigned) [WX-160], for which, in series [3], the concentration for a half-maximal effect (EC50) is 44.4 nM.

For the compound `CC[C@@H]1CN(C2=Nc3ccsc3[C@@H](CC(=O)O)N2c2cc(C(F)(F)F)ccc2OC)CCN1c1cccc(OC)c1` (single isomer, unassigned) [WX-169], the EC50 in series [3] was above 538 nM.

Regarding `CC[C@@H]1CN(C2=Nc3ccsc3[C@H](CC(=O)O)N2c2cc(C(F)(F)F)ccc2OC)CCN1c1cccc(OC)c1` (single isomer, unassigned) [WX-170], the EC50 in series [3] came out at 0.264 nM.

In the case of `COc1cccc(N2CCN(C3=Nc4ccsc4[C@@H](CC(=O)O)N3c3cc(C(F)(F)F)ccc3OC)C[C@H]2CF)c1` (single isomer, unassigned) [WX-171], in series [3], the EC50 is above 10 nM.

On to `COc1cccc(N2CCN(C3=Nc4ccsc4[C@H](CC(=O)O)N3c3cc(C(F)(F)F)ccc3OC)C[C@H]2CF)c1` (single isomer, unassigned) [WX-172], for which the EC50 in series [3] turned out to be 0.099 nM.

For the compound `COc1cc(N2CCN(C3=Nc4cc(C)sc4[C@H](CC(=O)O)N3c3cc(C(F)(F)F)ccc3OC)C[C@H]2C)ccn1` (single isomer, unassigned) [WX-173], the EC50 in series [3] was found to be 0.849 nM.

On to `COc1cc(N2CCN(C3=Nc4cc(C)sc4[C@@H](CC(=O)O)N3c3cc(C(F)(F)F)ccc3OC)C[C@H]2C)ccn1` (single isomer, unassigned) [WX-174], for which the EC50 in series [3] is above 10 nM.

Turning to `COc1cc(N2[C@H](C)CN(C3=Nc4ccsc4[C@H](CC(=O)O)N3c3cc(C(F)(F)F)ccc3OC)C[C@H]2C)ccn1` (single isomer, unassigned) [WX-196], the EC50 in series [3] worked out at 1.91 nM.

Regarding `COc1cc(N2[C@H](C)CN(C3=Nc4ccsc4[C@@H](CC(=O)O)N3c3cc(C(F)(F)F)ccc3OC)C[C@H]2C)ccn1` (single isomer, unassigned) [WX-197], the EC50 in series [3] was above 10 nM.

Take `COc1cc(N2[C@H](C)CN(C3=Nc4cscc4[C@H](CC(=O)O)N3c3cc(C(F)(F)F)ccc3OC)C[C@@H]2C)ccn1` (single isomer, unassigned) [WX-198]: in series [3], the EC50 is 0.713 nM.

As to `COc1cc(N2[C@H](C)CN(C3=Nc4cscc4[C@@H](CC(=O)O)N3c3cc(C(F)(F)F)ccc3OC)C[C@@H]2C)ccn1` (single isomer, unassigned) [WX-199], in series [3], the EC50 is above 10 nM.

Regarding `COc1cc(N2CCN(C3=Nc4ccsc4[C@@H](CC(=O)O)N3c3cc(C(F)(F)F)ccc3OC)C[C@H]2C)ccc1F` (single isomer, unassigned) [WX-200], the EC50 in series [3] is above 10 nM.

Turning to `COc1cc(N2CCN(C3=Nc4ccsc4[C@H](CC(=O)O)N3c3cc(C(F)(F)F)ccc3OC)C[C@H]2C)ccc1F` (single isomer, unassigned) [WX-201], in series [3], the EC50 was determined as 0.53 nM.

As to `COc1cccc(N2CCN(C3=Nc4cscc4[C@@H](CC(=O)O)N3c3cc(C(F)(F)F)ccc3OC)C[C@H]2C)c1` (single isomer, unassigned) [WX-203], the EC50 in series [3] was above 10 nM.

Take `COc1cccc(N2CCN(C3=Nc4cscc4[C@H](CC(=O)O)N3c3cc(C(F)(F)F)ccc3OC)C[C@H]2C)c1` (single isomer, unassigned) [WX-204]: the EC50 in series [3] was determined as 0.172 nM.
